According to patent US12071430B2 (The Johns Hopkins University, priority 2011, dated 2024):
≈ marks a conversion by molar mass, not a printed value.

What was measured:
[1] = Aqueous solubility test in 0.001N HCl; type: physicochemical; details: 0.001 N HCl aqueous buffer, simulated gastric fluid, kinetic from dmso stock; thermodynamic solubility, HPLC, pH=3, room temperature, 24 h
Procedure: (§1) The inhibitory effects of the new analogs on HUVEC proliferation were measured using a [3H]-thymidine incorporation assay. The log P values, used as an indicator of lipophilicity, were calculated using ALOGPS2.1 software. Aqueous solubility is a key physiochemical property relevant for oral absorption. We determined the solubility of each analog in 0.001 N HCl (pH=3), which represents the acidic human gastric fluid.
Aqueous solubility test. In a 1.5 mL microcentrifuge tube, 2 ul of 10 mM compound stock solution in DMSO was added to 1 mL 0.001N HCl aqueous buffer to obtain saturated solution. The resulting mixture was shaken under 600 rpm for 24 h at room temperature. Then the tube was centrifuged at 13,000 rpm for 5 min to remove the undissolved compound. 100 ul of the supernatant was injected to an Agilent 6120 LC/MS for analysis. The mass spectrometry data was collected under SIM/Scan mode. The ions of compound Exact Mass+1 and Exact Mass+23 were monitored as selected ion monitoring (SIM) for peak area integration. Solubility was calculated according to the concentration standard curve of each compound.

HUVEC [2] = test: HUVEC proliferation, [3H]-thymidine incorporation assay; type: cell-based; details: Homo sapiens, mean ± SD, three independent experiments, read-out: HUVEC inhibition IC50
HUVEC [3] = test: as above; type: cell-based, human
Procedure: as §1
HUVEC Culture and Proliferation Assays. HUVEC (Lonza) were grown in EGM-2 bullet kit media (Lonza) and used at passage eight or lower. The H thymidine incorporation assays were conducted as previously described. Briefly, cells were seeded on 96-well plate at a concentration of 2000 cells/well and allowed to settle overnight. Drugs were added to each well in triplicate. After 24 hours, cells were treated with 1 μCi of [3H] thymidine for 6 h. Then cells were harvested and transferred to filtermats. The scintillation were counted and IC50 were determined using Prism software (version 6.0).

CYP3A4 = molecular target: T1, CYP3A4 (Homo sapiens, UniProt P08684); test: CYP3A4 enzyme assay (Vivid CYP3A4 Green Screening Kit); type: in vitro ADME; details: for IC50: dose-response, FIG. 2 / FIG. 6, read-out: IC50 for CYP3A4 inhibition
T1 construct: purchased ThermoFisher P2857; host or cells: baculosomes (insect-cell microsomes, own knowledge)
T1 sequence (P08684 whole entry): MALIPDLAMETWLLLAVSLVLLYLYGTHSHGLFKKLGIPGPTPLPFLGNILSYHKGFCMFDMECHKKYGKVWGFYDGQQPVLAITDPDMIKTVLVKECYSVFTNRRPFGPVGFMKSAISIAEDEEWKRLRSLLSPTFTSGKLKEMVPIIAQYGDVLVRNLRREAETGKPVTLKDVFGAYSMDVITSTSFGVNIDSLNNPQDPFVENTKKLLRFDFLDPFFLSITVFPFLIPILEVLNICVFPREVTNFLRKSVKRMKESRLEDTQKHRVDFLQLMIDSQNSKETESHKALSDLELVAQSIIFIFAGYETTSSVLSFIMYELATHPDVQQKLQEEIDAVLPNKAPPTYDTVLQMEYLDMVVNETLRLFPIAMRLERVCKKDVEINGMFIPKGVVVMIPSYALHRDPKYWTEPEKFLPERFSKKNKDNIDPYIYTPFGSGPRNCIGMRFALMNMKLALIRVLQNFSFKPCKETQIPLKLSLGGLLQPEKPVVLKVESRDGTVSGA
Procedure: And CYP3A4 inhibition was initially determined using a cell-free fluorescence-based assay at a final concentration of 1 μM (Table 2).
CYP3A4 enzyme assay. CYP3A4 enzyme activity was tested using Vivid™ CYP3A4 Green Screening Kit (ThermoFisher, #P2857) using the manufacturer's protocol. Briefly, CYP3A4 baculosomes and drugs were incubated 10 min at 37° C. Then Vivid® Substrates were added and the fluorescence (ex/em:485/520) were read every 1 min for 60 minute.

solubility at 24 h [1] [µg/mL] | IC50 (CYP3A4) [nM] | CYP3A4 Inhibition (compared to intracozanole at 1 um) (CYP3A4; % enzyme inhibition at 1 uM drug / % enzyme inhibition at 1 uM itraconazole) | SMILES | IC50 (HUVEC [2]) [nM] | HUVEC proliferation / anti-angiogenic potency compared to itraconazole, in words (HUVEC [3]) | Proliferation (IC50/IC50 Itra) (HUVEC [3]; HUVEC IC50 relative to itraconazole)
0.0539 (≈ 0.0763 µM) |  |  | CCC(C)n1ncn(-c2ccc(N3CCN(c4ccc(OC[C@@H]5CO[C@@](Cn6cncn6)(c6ccc(Cl)cc6Cl)O5)cc4)CC3)nc2)c1=O (stereo partly drawn) [Compound 102, 4-(6-(4-(4-(((2S,4R)-2-((1H-1,2,4-triazol-1-yl)methyl)-2-(2,4-dichlorophenyl)-1,3-dioxolan-4-yl)methoxy)phenyl)piperazin-1-yl)pyridin-3-yl)-2-(sec-butyl)-2,4-dihydro-3H-1,2,4-triazol-3-one] | 222 ± 23.1 |  | 
17.2 (≈ 23.7 µM) |  |  | CCC(C)n1ncn(-c2ccc(N3CCN(c4ccc(OC[C@@H]5CO[C@@](Cn6ccnc6)(c6ccc(Cl)cc6Cl)O5)cc4)CC3)c(F)c2)c1=O (stereo partly drawn) [Compound 1, 4-(4-(4-(4-(((2S,4R)-2-((1H-imidazol-1-yl)methyl)-2-(2,4-dichlorophenyl)-1,3-dioxolan-4-yl)methoxy)phenyl)piperazin-1-yl)-3-fluorophenyl)-2-(sec-butyl)-2,4-dihydro-3H-1,2,4-triazol-3-one] | 70.1 ± 15.4 | increased activities | 
125 (≈ 173 µM) |  |  | CCC(C)n1ncn(-c2ccc(N3CCN(c4ccc(OC[C@@H]5CO[C@@](Cn6ccnc6)(c6ccc(Cl)cc6Cl)O5)cn4)CC3)c(F)c2)c1=O (stereo partly drawn) [Compound 5, 4-(4-(4-(5-(((2S,4R)-2-((1H-imidazol-1-yl)methyl)-2-(2,4-dichlorophenyl)-1,3-dioxolan-4-yl)methoxy)pyridin-2-yl)piperazin-1-yl)-3-fluorophenyl)-2-(sec-butyl)-2,4-dihydro-3H-1,2,4-triazol-3-one] | 68 ± 15.5 | increased activities | 
0.0291 (≈ 0.0402 µM) |  |  | CCC(C)n1ncn(-c2ccc(N3CCN(c4ccc(OC[C@@H]5CO[C@@](Cn6cncn6)(c6ccc(Cl)cc6Cl)O5)cc4)CC3)c(F)c2)c1=O (stereo partly drawn) [Compound 104, 4-(4-(4-(4-(((2S,4R)-2-((1H-1,2,4-triazol-1-yl)methyl)-2-(2,4-dichlorophenyl)-1,3-dioxolan-4-yl)methoxy)phenyl)piperazin-1-yl)-3-fluorophenyl)-2-(sec-butyl)-2,4-dihydro-3H-1,2,4-triazol-3-one] | 128 ± 59.7 |  | 
0.848 (≈ 1.17 µM) |  |  | CCC(C)n1ncn(-c2ccc(N3CCN(c4ccc(OC[C@@H]5CO[C@@](Cn6cncn6)(c6ccc(Cl)cc6Cl)O5)cn4)CC3)c(F)c2)c1=O (stereo partly drawn) [Compound 106, 4-(4-(4-(5-(((2S,4R)-2-((1H-1,2,4-triazol-1-yl)methyl)-2-(2,4-dichlorophenyl)-1,3-dioxolan-4-yl)methoxy)pyridin-2-yl)piperazin-1-yl)-3-fluorophenyl)-2-(sec-butyl)-2,4-dihydro-3H-1,2,4-triazol-3-one] | 173 ± 27.6 |  | 
6.48 (≈ 9.19 µM) |  |  | CCC(C)n1ncn(-c2ccc(N3CCN(c4ccc(OC[C@@H]5CO[C@@](Cn6ccnc6)(c6ccc(Cl)cc6Cl)O5)nc4)CC3)cc2)c1=O (stereo partly drawn) [Compound 2, 4-(4-(4-(6-(((2S,4R)-2-((1H-imidazol-1-yl)methyl)-2-(2,4-dichlorophenyl)-1,3-dioxolan-4-yl)methoxy)pyridin-3-yl)piperazin-1-yl)phenyl)-2-(sec-butyl)-2,4-dihydro-3H-1,2,4-triazol-3-one] | 468 ± 42.2 |  | 
2.94 (≈ 4.16 µM) | 2600 |  | CCC(C)n1ncn(-c2ccc(N3CCN(c4ccc(OC[C@@H]5CO[C@@](Cn6ccnc6)(c6ccc(Cl)cc6Cl)O5)cn4)CC3)cc2)c1=O (stereo partly drawn) [Compound 4, 4-(4-(4-(5-(((2S,4R)-2-((1H-imidazol-1-yl)methyl)-2-(2,4-dichlorophenyl)-1,3-dioxolan-4-yl)methoxy)pyridin-2-yl)piperazin-1-yl)phenyl)-2-(sec-butyl)-2,4-dihydro-3H-1,2,4-triazol-3-one] | 69.1 ± 7 | increased activities | 
7.99 (≈ 11.3 µM) |  |  | CCC(C)n1ncn(-c2ccc(N3CCN(c4ccc(OC[C@@H]5CO[C@@](Cn6ccnc6)(c6ccc(Cl)cc6Cl)O5)cc4)CC3)nc2)c1=O (stereo partly drawn) [Compound 6, 4-(6-(4-(4-(((2S,4R)-2-((1H-imidazol-1-yl)methyl)-2-(2,4-dichlorophenyl)-1,3-dioxolan-4-yl)methoxy)phenyl)piperazin-1-yl)pyridin-3-yl)-2-(sec-butyl)-2,4-dihydro-3H-1,2,4-triazol-3-one] | 98.5 ± 36.3 | increased activities | 
0.116 (≈ 0.164 µM) |  |  | CCC(C)n1ncn(-c2ccc(N3CCN(c4ccc(OC[C@@H]5CO[C@@](Cn6cncn6)(c6ccc(Cl)cc6Cl)O5)nc4)CC3)cc2)c1=O (stereo partly drawn) [Compound 100, 4-(4-(4-(6-(((2S,4R)-2-((1H-1,2,4-triazol-1-yl)methyl)-2-(2,4-dichlorophenyl)-1,3-dioxolan-4-yl)methoxy)pyridin-3-yl)piperazin-1-yl)phenyl)-2-(sec-butyl)-2,4-dihydro-3H-1,2,4-triazol-3-one] | 687 ± 78.1 |  | 
41.3 (≈ 58.6 µM) |  |  | CCC(C)n1ncn(-c2ccc(N3CCN(c4ccc(OC[C@@H]5CO[C@@](Cn6ccnc6)(c6ccc(Cl)cc6Cl)O5)cc4)CC3)cn2)c1=O (stereo partly drawn) [Compound 7, 4-(5-(4-(4-(((2S,4R)-2-((1H-imidazol-1-yl)methyl)-2-(2,4-dichlorophenyl)-1,3-dioxolan-4-yl)methoxy)phenyl)piperazin-1-yl)pyridin-2-yl)-2-(sec-butyl)-2,4-dihydro-3H-1,2,4-triazol-3-one] | 636 ± 177 |  | 
0.496 (≈ 0.703 µM) |  |  | CCC(C)n1ncn(-c2ccc(N3CCN(c4ccc(OC[C@@H]5CO[C@@](Cn6cncn6)(c6ccc(Cl)cc6Cl)O5)cc4)CC3)cn2)c1=O (stereo partly drawn) [Compound 103, 4-(5-(4-(4-(((2S,4R)-2-((1H-1,2,4-triazol-1-yl)methyl)-2-(2,4-dichlorophenyl)-1,3-dioxolan-4-yl)methoxy)phenyl)piperazin-1-yl)pyridin-2-yl)-2-(sec-butyl)-2,4-dihydro-3H-1,2,4-triazol-3-one] | 188 ± 17.5 |  | 
0.255 (≈ 0.352 µM) |  |  | CCC(C)n1ncn(-c2ccc(N3CCN(c4ccc(OC[C@@H]5CO[C@@](Cn6cncn6)(c6ccc(Cl)cc6Cl)O5)nc4)CC3)c(F)c2)c1=O (stereo partly drawn) [Compound 105, 4-(4-(4-(6-(((2S,4R)-2-((1H-1,2,4-triazol-1-yl)methyl)-2-(2,4-dichlorophenyl)-1,3-dioxolan-4-yl)methoxy)pyridin-3-yl)piperazin-1-yl)-3-fluorophenyl)-2-(sec-butyl)-2,4-dihydro-3H-1,2,4-triazol-3-one] | 446 ± 38.3 |  | 
0.114 (≈ 0.161 µM) | 3400 |  | CCC(C)n1ncn(-c2ccc(N3CCN(c4ccc(OC[C@@H]5CO[C@@](Cn6cncn6)(c6ccc(Cl)cc6Cl)O5)cn4)CC3)cc2)c1=O (stereo partly drawn) [Compound 101, 4-(4-(4-(5-(((2S,4R)-2-((1H-1,2,4-triazol-1-yl)methyl)-2-(2,4-dichlorophenyl)-1,3-dioxolan-4-yl)methoxy)pyridin-2-yl)piperazin-1-yl)phenyl)-2-(sec-butyl)-2,4-dihydro-3H-1,2,4-triazol-3-one] | 380 ± 50.8 |  | 
 |  | No inhibition | CCC(C)n1ncn(-c2ccc(N3CCN(c4ccc(OC[C@@H]5COC(c6ccc(Cl)cc6Cl)O5)cc4)CC3)cc2)c1=O (stereo partly drawn) [Compound 62, 1-sec-butyl-4-(4-(4-(4-(((4R)-2-(2,4-dichlorophenyl)-1,3-dioxolan-4-yl)methoxy)phenyl)piperazin-1-yl)phenyl)-1H-1,2,4-triazol-5(4H)-one] |  |  | 1.9
